Test results reported in US11643417B2, “Tetrahydrobenzofurodiazepinone compound and pharmaceutical use thereof” (priority 2020, dated 2023).
Like-named read-outs stand apart in the source and are kept apart here.

Target: human Pim-1 (Homo sapiens (Human), UniProt P11309)
Test: biochemical
Format: biochemical
Settings: Ki converted from IC50, purified human Pim-1, Pim2tide substrate, ADP-Glo
Protocol: The human Pim-1 inhibitory activity of the test compounds was evaluated as follows.
(1) Purification of Human Pim-1
DNA fragment in which a His-Tag sequence and a translation termination sequence are added to the 3′-end of human Pim-1 translation sequence was amplified by PCR (Polymerase Chain Reaction), using human Pim-1 gene-inserted plasmid DNA (Kazusa DNA Laboratory, model number FXC11400) as a template. The amplified DNA fragment was fused with pGEx-6P-1 (GE Healthcare Japan, model number 27-4597-1) digested with BamHI and EcoRI using In-Fusion HD Cloning Kit (Takara Bio, model number 639649). […] The base sequence of Pim-1 cloned into vector was determined by Dye Terminator method using BigDye Terminator v3.1 Cycle Sequencing Kit (Applied Biosystems, model number 4337456). […] Escherichia coli BL21 (DE3) (Merck KGaA, model number 69449-4) transformed with human Pim-1-expressed plasmid DNA was cultured in 2×YT medium (Becton Dickinson, model number 2404020) at 30° C., until the optical concentration at 620 nm (OD620) reached 0.6, and then cultured overnight at 20° C. in the presence of 0.5 mmol/L isopropyl b-D-1-thiogalactopyranoside. After the completion of so the culture, the cells were collected and suspended in Homogenate Buffer (50 mmol/L Tris-HCl (pH 7.5), 500 mmol/L NaCl, 1% Tween20, complete, EDTA-free (Roche, model number 1873580)), and the suspended cells were lysed by passing through a microfluidizer M-110H (Mizuho Kogyo Co., Ltd.). The lysate was centrifuged at 10,100×g for 10 minutes, 4° C., and the supernatant was filtered through MILLEX-HV Filter (0.45 μm) (Millipore, SLHV033RS) to remove the cell residues. The filtrate was loaded onto complete His-Tag Purification Resin (Roche Diagnostics, model number 05 893 682 0.01). The column was washed with Equilibration Buffer-1 (50 mmol/L Tris-HCl (pH 7.5), 500 mmol/L NaCl, 1% Tween 20) containing 5 mmol/L Imidazole, followed by Equilibration Buffer-1 containing 50 mmol/L Imidazole, the human Pim-1 to which GST-Tag derived from pGEx-6P-1 was eluted with Equilibration Buffer-1 containing 150 mmol/L imidazole. […] The protease reaction was carried out by stirring overnight at 4° C., and the human Pim-1 in which the GST-Tag sequence was cleaved was eluted. The eluate was loaded onto a gel filtration column (Superdex-200 […] (GE Healthcare, model number 17-5175-01)) equilibrated with Equilibration Buffer-3 (50 mmol/L Tris-HCl (pH 7.5), 500 mmol/L NaCl, 0.05% Tween20, 0.5 mmol/L EDTA, 2 mmol/L DTT, 10% Glycerol), and eluted. The eluate was used as a human Pim-1 purified fraction.
The protein concentration of the human Pim-1 purified fraction was measured with Pierce 660 nm Protein Assay Reagent (Thermo Fisher Scientific, model number 22660). The purified fraction was rapidly frozen in liquid nitrogen, and then stored at −80° C. The His-Tag-added human Pim-1 was detected by Western blotting using a mouse anti-His monoclonal antibody (WAKO, model number 011-23091).
(2) Evaluation of Human Pim-1 Inhibitory Activity
The calculation of the Pim-1 inhibitory activity of the compound was performed using the following solution according to the protocol attached to ADP-Glo Kinase Assay (cat. V9102, Promega). The purified enzyme of human Pim-1 described above was used.
(i) Preparation of Solution
The kinase buffer solution (50 mmol/L HEPES (pH 7.5), 5 mmol/L MgCl2, 1 mmol/L DTT, 0.05% BSA) was prepared by dissolving HEPES (Jena Bioscience), MgCl2 (Sigma-Aldrich), DTT (Sigma-Aldrich) and BSA (Sigma-Aldrich) in purified water.
The ATP solution (288 μmol/L) was prepared by dissolving 100 mmol/L ATP (Promega) in the kinase buffer solution.

human Pim-1, sequence (P11309 whole entry): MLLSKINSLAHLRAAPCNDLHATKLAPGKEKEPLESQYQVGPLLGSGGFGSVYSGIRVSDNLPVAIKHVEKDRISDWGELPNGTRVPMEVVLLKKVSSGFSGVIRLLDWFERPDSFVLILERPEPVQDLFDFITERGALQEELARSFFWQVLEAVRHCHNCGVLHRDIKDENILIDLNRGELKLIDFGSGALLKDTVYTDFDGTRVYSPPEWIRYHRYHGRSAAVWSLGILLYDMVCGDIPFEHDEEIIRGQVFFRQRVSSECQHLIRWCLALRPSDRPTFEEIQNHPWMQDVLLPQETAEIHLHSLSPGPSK

Row | Compound | Ki (read-out: hPim1 Ki) [nM] | Ki (hPim1 Ki (nM)) [nM]
1 | O=C1NCCN(CCC2CC(O)(CO)CCO2)c2c1oc1ccc(C(F)(F)F)cc21 (stereo not shown) [Example 4] | 0.442 | 
2 | CC(C)(O)C1(O)CCOC(C(F)(F)CN2CCNC(=O)c3oc4ccc(C(F)(F)F)cc4c32)C1 (stereo not shown) [Example 30] | 0.0577 | 
3 | N#CC1(CCO)CCOC(CCN2CCNC(=O)c3oc4ccc(C(F)(F)F)cc4c32)C1 (racemic) [Example 7] | 0.468 | 
4 | O=C1NC2(CC2)CN(CC[C@H]2CO[C@@H](CF)CO2)c2c1oc1ccc(C(F)(F)F)cc21 [Example 157] | 0.234 | 
5 | O=C1NCCN(CC[C@H]2CC[C@](O)(CO)CC2)c2c1oc1ccc(C(F)(F)F)cc21 [Example 90, 1-(2-((1s,4s)-4-hydroxy-4-(hydroxymethyl)cyclohexyl)ethyl)-9-(trifluoromethyl)-1,2,3,4-tetrahydro-5H-benzofuro[3,2-e][1,4]diazepin-5-one] | 0.0091 | 
6 | N#CC1CCOC(CCN2CCNC(=O)c3oc4ccc(C(F)(F)F)cc4c32)C1 (stereo not shown) [Example 2] | 1.12 | 
7 | O=C1NCCN(CC[C@H]2CC[C@](O)(C(F)(F)F)CC2)c2c1oc1ccc(C(F)(F)F)cc21 [Example 85] | 4.08 | 
8 | CC1(O)CCOC(C(F)(F)CN2CCNC(=O)c3oc4ccc(C(F)(F)F)cc4c32)C1 (racemic) [Example 11, 1-(2,2-difluoro-2-(4-hydroxy-4-methyltetrahydro-2H-pyran-2-yl)ethyl)-9-(trifluoromethyl)-1,2,3,4-tetrahydro-5H-benzofuro[3,2-e][1,4]diazepin-5-one] |  | 0.0596
9 | O=C1NCCN(CC(F)(F)C2CCC(O)(CO)CC2)c2c1oc1ccc(C(F)(F)F)cc21 (stereo not shown) [Example 120] | 0.006 | 
10 | O=C1CCC(C(F)(F)CN2CCNC(=O)c3oc4ccc(C(F)(F)F)cc4c32)CC1 [Example 166] | 0.189 | 
11 | O=C1NCCN(CC(F)(F)C2CC(O)(C(F)(F)F)CCO2)c2c1oc1ccc(C(F)(F)F)cc21 (stereo not shown) [Example 19] | 0.101 | 
12 | O=C1NCCN(CCC2CC3(CC(CO)C3)C2)c2c1oc1ccc(C(F)(F)F)cc21 (racemic) [Example 143] | 0.947 | 
13 | CC1(C)OCC(C(F)(F)CN2CCNC(=O)c3oc4ccc(C(F)(F)F)cc4c32)CO1 [Example 71] | 1.3 | 
14 | O=C1NCCN(CC(F)(F)[C@H]2CC[C@H](O)CC2)c2c1oc1ccc(C(F)(F)F)cc21 [Example 106, 1-(2,2-difluoro-2-((1r,4r)-4-hydroxycyclohexyl)ethyl)-9-(trifluoromethyl)-1,2,3,4-tetrahydro-5H-benzofuro[3,2-e][1,4]diazepin-5-one] | 0.0409 | 
15 | O=C1NCCN(CC(F)(F)C2CC(O)CCC2(F)F)c2c1oc1ccc(C(F)(F)F)cc21 (stereo not shown) [Example 62] | 0.0461 | 
16 | N#CCC1COCC(CCN2CCNC(=O)c3oc4ccc(C(F)(F)F)cc4c32)O1 (racemic) [Example 140] | 5.8 | 
17 | O=C1NCCN(CCC2CCC(O)(C(F)(F)CO)CC2)c2c1oc1ccc(C(F)(F)F)cc21 (single isomer, unassigned) [Example 119] | 0.144 | 
18 | O=C1NCCN(CC(F)(F)C2CC(CO)CCO2)c2c1oc1ccc(C(F)(F)F)cc21 (single isomer, unassigned) [Example 15] |  | 0.0289
19 | O=C1NCCN(CC[C@H]2CO[C@@H](CO)CO2)c2c1oc1ccc(C(F)(F)F)cc21 [Example 42] | 0.567 | 
20 | O=C1NC2(CC2)CN(CC[C@H]2CO[C@@H](CO)CO2)c2c1oc1ccc(C(F)(F)F)cc21 [Example 154] | 0.302 | 
21 | CS(=O)(=O)C[C@H]1CO[C@H](CCN2CCNC(=O)c3oc4ccc(C(F)(F)F)cc4c32)CO1 (racemic) [Example 130] | 1.16 | 
22 | COC[C@]1(OC)CC[C@@H](CCN2CCNC(=O)c3oc4ccc(C(F)(F)F)cc4c32)CC1 [Example 2-04] | 1.25 | 
23 | O=C1NCCN(CCC2CCCCC2)c2c1oc1ccc(C(F)(F)F)cc21 [Example 25] | 11 | 
24 | N#CC1(CCO)CCOC(C(F)(F)CN2CCNC(=O)c3oc4ccc(C(F)(F)F)cc4c32)C1 (stereo not shown) [Example 33] | 0.0793 | 
25 | O=C1NCCN(CC(F)(F)[C@@H]2CO[C@@H](CO)CO2)c2c1oc1ccc(C(F)(F)F)cc21 [Example 77, 1-(2,2-difluoro-2-((2S,5S)-5-(hydroxymethyl)-1,4-dioxan-2-yl)ethyl)-9-(trifluoromethyl)-1,2,3,4-tetrahydro-5H-benzofuro[3,2-e][1,4]diazepin-5-one] | 0.0438 | 

Row | Compound | Ki (read-out: hPim1 Ki) [nM] | Ki (hPim1 Ki (nM)) [nM]
26 | O=C1NC2(CC2)CN(CC(F)(F)[C@H]2CO[C@H](CO)CO2)c2c1oc1ccc(C(F)(F)F)cc21 [Example 164] | 0.0193 | 
27 | O=C1NC2(CC2)CN(CCC2CCC(O)(CO)CC2)c2c1oc1ccc(C(F)(F)F)cc21 (stereo not shown) [Example 116] |  | 0.0092
28 | O=C1NCCN(CCC2CCC(F)(CO)CC2)c2c1oc1ccc(C(F)(F)F)cc21 (stereo not shown) [Example 150] | 0.13 | 
29 | CC1COCC(CCN2CCNC(=O)c3oc4ccc(C(F)(F)F)cc4c32)O1 (racemic) [Example 115] | 0.672 | 
30 | N#CCC1(O)CCC(CCN2CCNC(=O)c3oc4ccc(C(F)(F)F)cc4c32)CC1 (stereo not shown) [Example 121] | 0.705 | 
31 | O=C1NCCN(CC(F)(F)C2CCOCC2)c2c1oc1ccc(C(F)(F)F)cc21 [Example 65] | 0.12 | 
32 | O=C1NCCN(CC(F)(F)[C@H]2CO[C@@H](CO)CO2)c2c1oc1ccc(C(F)(F)F)cc21 [Example 96] | 0.0283 | 
33 | O=C1NCCN(CCC2COCC(CF)O2)c2c1oc1ccc(C(F)(F)F)cc21 (racemic) [Example 134] | 0.753 | 
34 | O=C1NCCN(CCC2CCC(O)(C(=O)O)CC2)c2c1oc1ccc(C(F)(F)F)cc21 (stereo not shown) [Example 102] | 5.47 | 
35 | O=C1NCCN(CCC2CCS(=O)(=O)CC2)c2c1oc1ccc(C(F)(F)F)cc21 [Example 87] | 1.97 | 
36 | O=C1CCC(F)(F)C(C(F)(F)CN2CCNC(=O)c3oc4ccc(C(F)(F)F)cc4c32)C1 (racemic) [Example 61] | 0.0391 | 
37 | O=C1NCCN(CCC2CCC(C3(O)CC3)CC2)c2c1oc1ccc(C(F)(F)F)cc21 (stereo not shown) [Example 110] | 0.133 | 
38 | O=C1NCCN(CC(F)(F)C2CC3(CCO2)COC3)c2c1oc1ccc(C(F)(F)F)cc21 (racemic) [Example 57] | 0.0448 | 
39 | O=C1NCCN(CCC2COCC(CF)O2)c2c1oc1ccc(C(F)(F)F)cc21 (racemic) [Example 135] | 0.66 | 
40 | O=C1NCCN(CCC2CC(O)CCC2(F)F)c2c1oc1ccc(C(F)(F)F)cc21 (stereo not shown) [Example 38] | 0.189 | 
41 | O=C1NCCN(CC(F)(F)C2CC(CO)CCO2)c2c1oc1ccc(C(F)(F)F)cc21 (stereo not shown) [Example 47] | 0.0246 | 
42 | O=C1NCCN(CCC2CCC(CO)(CO)CC2)c2c1oc1ccc(C(F)(F)F)cc21 [Example 146] | 0.0231 | 
43 | O=C1NCCN(CC[C@H]2CO[C@H](CO)CO2)c2c1oc1ccc(C(F)(F)F)cc21 [Example 41] | 0.933 | 
44 | O=C1NC2(CC2)CN(CC(F)(F)C2CCS(=O)(=O)CC2)c2c1oc1ccc(C(F)(F)F)cc21 [Example 160] | 0.0982 | 
45 | [2H]C1(O)CCC(CCN2CCNC(=O)c3oc4ccc(C(F)(F)F)cc4c32)CC1 (stereo not shown) [Example 92] |  | 0.707
46 | O=C1NCCN(CC[C@H]2CC[C@@H](O)CC2)c2c1oc1ccc(C(F)(F)F)cc21 [Example 83] | 0.762 | 
47 | O=C1NCCN(CCC2CCC(CO)CCO2)c2c1oc1ccc(C(F)(F)F)cc21 (stereo not shown) [Example 9] | 0.481 | 
48 | O=C1NCCN(CCC23CC(CO)(C2)C3)c2c1oc1ccc(C(F)(F)F)cc21 [Example 113] | 0.726 | 
49 | CS(=O)(=O)C[C@H]1CO[C@H](CCN2CC3(CC3)NC(=O)c3oc4ccc(C(F)(F)F)cc4c32)CO1 [Example 161] | 0.188 | 
